Assay results from US20240116910A1, “Heterocycles as WIP1 Inhibitors” (PMV Pharmaceuticals, Inc., priority 2022, published 2024).

Columns and labels:
[1] = biological target: recombinant His-tag Wip1(2-420) protein (amino acids #2-420) (Homo sapiens (Human), UniProt O15297); assay: Wip1(2-420) phosphatase enzyme FDP assay; assay type: biochemical; settings: fluorescein diphosphate (FDP) substrate, RT 2 hours, fluorescence Ex485/Em535; read-out: WIP1 (Truncated 2-420) FDP Assay: IC50
[2] = biological target: recombinant His-tag Wip1 full length protein (amino acids #1-605) (Homo sapiens (Human), UniProt O15297); assay: Wip1 full length phosphatase enzyme FDP assay; assay type: biochemical; settings: fluorescein diphosphate (FDP) substrate, RT 2 hours, fluorescence Ex485/Em535
recombinant His-tag Wip1 full length protein (amino acids #1-605), sequence (O15297 whole entry, the tested form may be a part): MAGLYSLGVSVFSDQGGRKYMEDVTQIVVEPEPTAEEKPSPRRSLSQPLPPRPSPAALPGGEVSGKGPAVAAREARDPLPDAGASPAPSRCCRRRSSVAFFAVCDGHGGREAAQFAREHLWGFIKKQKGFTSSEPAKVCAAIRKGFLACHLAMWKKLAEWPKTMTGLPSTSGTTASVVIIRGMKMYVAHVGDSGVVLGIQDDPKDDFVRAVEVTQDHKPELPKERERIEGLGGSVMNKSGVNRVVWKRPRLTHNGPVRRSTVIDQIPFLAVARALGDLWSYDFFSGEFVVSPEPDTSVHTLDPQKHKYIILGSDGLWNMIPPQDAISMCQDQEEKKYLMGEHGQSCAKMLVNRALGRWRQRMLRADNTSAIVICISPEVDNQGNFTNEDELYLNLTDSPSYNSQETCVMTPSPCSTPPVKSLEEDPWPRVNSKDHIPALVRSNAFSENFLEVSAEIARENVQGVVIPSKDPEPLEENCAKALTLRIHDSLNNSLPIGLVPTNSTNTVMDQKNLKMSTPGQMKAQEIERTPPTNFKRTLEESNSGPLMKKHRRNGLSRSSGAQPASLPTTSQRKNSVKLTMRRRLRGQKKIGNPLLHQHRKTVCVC
Description: The Human Wip1 (2-420, aa 2-420) or Wip1 full length (aa 1-605) DNA sequence was codon optimized and synthesized by Genscript for insect cell expression. The open reading frame of Wip1(2-420) with a N-terminal-His6 affinity tag followed by a TEV cleavage site was subcloned sites into the pFastBac1 expression vector. The recombinant bacmid DNA was transfected in Sf9 insect cells for baculovirus production. After 72 hours infection, the Sf9 cells were harvested by centrifugation and resuspended in lysis buffer containing 50 mM Tris/HCl, pH 8.0, 500 mM NaCl, 20% glycerol, Benzonase 0.5% CHAPS and Roche cOmplete™ EDTA free protease inhibitors. Cells were disrupted with microfluidizer and the debris was removed by centrifugation at 185,000 g for 1 hour. The supernatant was subjected to HisTrap FF for affinity purification. Proteins were eluted with a linear gradient of 0-500 mM imidazole in HisTrap buffer containing 50 mM Tris/HCl, pH 8.0, 500 mM NaCl and 20% glycerol, 0.05% CHAPS. The eluted protein was dialyzed against dialysis buffer (20 mM MES, 100 mM NaCl, 20% glycerol, 0.5 mM TCEP, 0.05% CHAPS) followed purification via HiTrap SP HP column. The protein was eluted with a gradient of 100 mM-2 M NaCl in dialysis buffer. His6-[…] was finally concentrated and loaded onto a size-exclusion column (NiLoad 16/600 Superdex 200 pg, GE Healthcare) pre-equilibrated with 50 mM MOPS (pH 7.5), 200 mM NaCl, 20% glycerol, 1 mM TCEP, 0.05% CHAPS and 0.1 mM EGTA. The peak fractions containing purified Nis6-Wip1(2-420) were pooled and concentrated to 1.0 mg/mL and flash frozen at −80° C.
Wip1 Length and Wip1(2-420) Phosphatase Enzyme FDP Assays.
Test compounds (252 mM stock in DMSO) were diluted 3 folds in series in DMSO and 1.2 μl per well were added into 384-well polypropylene black plates (Nunc). Twelve μl per well of Assay Buffer (100 mM NaCl, 50 mM MOPS, pH 7.5, 0.8 mM CHAPS, 0.1 mM EGTA, 30 mM MgCl2, 0.3 mM TCEP, 0.2 mg/mL BSA) was added followed by […] per well of 50.4 nM recombinant His-tag Wip1 full length protein (amino acids #1-605) or recombinant His-tag Wip1(2-420) protein (amino acids #2-420) in Assay Buffer and the plate was incubated at RT (22° C.) for 5 min. Ten mM of fluorescein diphosphate (FDP) in DMSO was diluted to […] in Assay Buffer and […] per well was added to the plate and incubated at RT (22° C.) for 2 hours. […] per well of 64.1 mM EDTA in water were added to stop the enzyme reaction. The plate was centrifuged at 1,200 rpm (Eppendorf 5810R Plate centrifuge) for 1 minute and fluorescence intensity (Ex485/Em535) was measured on Perkin Elmer Victor Reader. EC50 values were calculated using either Prism (GraphPad) or ActivityBase software (IDBS), The IC50 results are provided in Table M.

recombinant His-tag Wip1(2-420) protein (amino acids #2-420), sequence (O15297 2-420): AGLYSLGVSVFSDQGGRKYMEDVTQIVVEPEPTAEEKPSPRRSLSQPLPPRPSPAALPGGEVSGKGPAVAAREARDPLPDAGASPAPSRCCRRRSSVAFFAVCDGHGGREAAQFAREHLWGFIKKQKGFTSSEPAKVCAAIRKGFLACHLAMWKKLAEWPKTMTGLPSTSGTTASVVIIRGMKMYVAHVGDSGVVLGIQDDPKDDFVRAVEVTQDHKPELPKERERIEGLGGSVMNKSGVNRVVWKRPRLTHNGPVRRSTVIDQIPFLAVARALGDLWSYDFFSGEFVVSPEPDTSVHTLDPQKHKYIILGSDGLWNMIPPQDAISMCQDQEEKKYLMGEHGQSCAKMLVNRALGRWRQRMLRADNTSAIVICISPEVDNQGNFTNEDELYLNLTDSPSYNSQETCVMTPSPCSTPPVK

| IC50 [1] | IC50 [2] | SMILES |
| --- | --- | --- |
| 12 nM | 15 nM | Cc1ncc(Cl)cc1N[C@@H](C)c1ccc(C(=O)N[C@@H](CC2CCCC2)C(=O)NC2(C(F)(F)F)CC2)s1 [Compound 42, (2S)-2-({5-[(1S)-1-[(5-chloro-2-methylpyridin-3-yl)amino]ethyl]thiophen-2-yl}formamido)-3-cyclopentyl-N-[1-(trifluoromethyl)cyclopropyl]propanamide] |
| 13 nM | 16 nM | Cc1ncc(Cl)cc1N[C@@H](C)c1ccc(C(=O)N[C@@H](CC2CCCC2)C(=O)NC23CC(C(=O)O)(C2)C3)s1 [Compound 43, 3-[(2S)-2-({5-[(1S)-1-[(5-chloro-2-methylpyridin-3-yl)amino]ethyl]thiophen-2-yl}formamido)-3-cyclopentylpropanamido]bicyclo[1.1.1]pentane-1-carboxylic acid] |
| 12 nM | 14 nM | CNC(=O)C12CC(NC(=O)[C@H](CC3CCCC3)NC(=O)c3ccc([C@H](C)Nc4cc(Cl)cnc4C)s3)(C1)C2 [Compound 44, 3-[(2S)-2-({5-[(1S)-1-[(5-chloro-2-methylpyridin-3-yl)amino]ethyl]thiophen-2-yl}formamido)-3-cyclopentylpropanamido]-N-methylbicyclo[1.1.1]pentane-1-carboxamide] |
| 7 nM | 9 nM | Cc1ncc(Cl)cc1N[C@@H](C)c1ccc(C(=O)N[C@@H](CC2CCCC2)C(=O)NC23CC(C(N)=O)(C2)C3)s1 [Compound 45, 3-[(2S)-2-({5-[(1S)-1-[(5-chloro-2-methylpyridin-3-yl)amino]ethyl]thiophen-2-yl}formamido)-3-cyclopentylpropanamido]bicyclo[1.1.1]pentane-1-carboxamide] |
| 16 nM | 23 nM | CC(c1ccc(C(=O)N[C@@H](CC2CCCC2)C(=O)NC2CC2)s1)N1CCc2cc(F)c(Cl)cc21 (stereo partly drawn) [Compound 46, (2S)-2-({5-[1-(6-chloro-5-fluoro-2,3-dihydro-1H-indol-1-yl)ethyl]thiophen-2-yl}formamido)-3-cyclopentyl-N-cyclopropylpropanamide] |
| 11 nM | 11 nM | CC[C@H](Nc1cc(Cl)cnc1C)c1ccc(C(=O)N[C@@H](CC2CCCC2)C(=O)N[C@@H]2CC2(F)F)s1 [Compound 47, (2S)-2-({5-[(1S)-1-[(5-chloro-2-methylpyridin-3-yl)amino]propyl]thiophen-2-yl}formamido)-3-cyclopentyl-N-[(1R)-2,2-difluorocyclopropyl]propanamide] |
| 5 nM | 8 nM | CC[C@H](Nc1cc(Cl)cnc1C)c1ccc(C(=O)N[C@@H](CC2CCCC2)C(=O)N[C@H]2CC2(F)F)s1 [Compound 48, (2S)-2-({5-[(1S)-1-[(5-chloro-2-methylpyridin-3-yl)amino]propyl]thiophen-2-yl}formamido)-3-cyclopentyl-N-[(1S)-2,2-difluorocyclopropyl]propanamide] |
| 104 nM | 164 nM | COc1ncc(Cl)cc1N[C@@H](C)c1ccc(C(=O)N[C@@H](CC2CCCC2)C(=O)N[C@H]2CC2(F)F)s1 [Compound 49, (2S)-2-({5-[(1S)-1-[(5-chloro-2-methoxypyridin-3-yl)amino]ethyl]thiophen-2-yl}formamido)-3-cyclopentyl-N-[(1S)-2,2-difluorocyclopropyl]propanamide] |
| 122 nM | 170 nM | CC[C@@H](Nc1cc(Cl)cnc1C)c1ccc(C(=O)N[C@@H](CC2CCCC2)C(=O)N[C@@H]2CC2(F)F)s1 [Compound 50, (2S)-2-({5-[(1R)-1-[(5-chloro-2-methylpyridin-3-yl)amino]propyl]thiophen-2-yl}formamido)-3-cyclopentyl-N-[(1R)-2,2-difluorocyclopropyl]propanamide] |
| 74 nM | 113 nM | CC[C@@H](Nc1cc(Cl)cnc1C)c1ccc(C(=O)N[C@@H](CC2CCCC2)C(=O)N[C@H]2CC2(F)F)s1 [Compound 51, (2S)-2-({5-[(1R)-1-[(5-chloro-2-methylpyridin-3-yl)amino]propyl]thiophen-2-yl}formamido)-3-cyclopentyl-N-[(1S)-2,2-difluorocyclopropyl]propanamide] |
| 5 nM | 8 nM | Cc1ccc(NC(=O)[C@H](CC2CCCC2)NC(=O)c2ccc([C@H](C)Nc3cc(Cl)cnc3C)s2)cn1 [Compound 53, (2S)-2-({5-[(1S)-1-[(5-chloro-2-methylpyridin-3-yl)amino]ethyl]thiophen-2-yl}formamido)-3-cyclopentyl-N-(6-methylpyridin-3-yl)propanamide] |
| 8 nM | 11 nM | Cc1ncc(Cl)cc1NC(C)(C)c1ccc(C(=O)N[C@@H](CC2CCCC2)C(=O)NC23CC(C2)C3)s1 [Compound 54, (2S)-N-{bicyclo[1.1.1]pentan-1-yl}-2-[(5-{2-[(5-chloro-2-methylpyridin-3-yl)amino]propan-2-yl}thiophen-2-yl)formamido]-3-cyclopentylpropanamide] |
| 29 nM | 36 nM | Cc1ncc(Cl)cc1NC(C)(C)c1ccc(C(=O)N[C@@H](CC2CCCC2)C(=O)NC2CC2)s1 [Compound 55, (2S)-2-[(5-{2-[(5-chloro-2-methylpyridin-3-yl)amino]propan-2-yl}thiophen-2-yl)formamido]-3-cyclopentyl-N-cyclopropylpropanamide] |
| 39 nM | 50 nM | C[C@@H](c1ccc(C(=O)N[C@@H](CC2CCCC2)C(=O)NC2CC2)s1)N1CCc2cc(F)c(Cl)cc21 [Compound 56, (2S)-2-({5-[(1S)-1-(6-chloro-5-fluoro-2,3-dihydro-1H-indol-1-yl)ethyl]thiophen-2-yl}formamido)-3-cyclopentyl-N-cyclopropylpropanamide] |
| 12 nM | 16 nM | C[C@H](c1ccc(C(=O)N[C@@H](CC2CCCC2)C(=O)NC2CC2)s1)N1CCc2cc(F)c(Cl)cc21 [Compound 57, (2S)-2-({5-[(1R)-1-(6-chloro-5-fluoro-2,3-dihydro-1H-indol-1-yl)ethyl]thiophen-2-yl}formamido)-3-cyclopentyl-N-cyclopropylpropanamide] |
| 9 nM | 12 nM | Cc1ncc(Cl)cc1N[C@@H](C)c1ccc(C(=O)N[C@@H](CC2CCCC2)C(=O)NC2CCS(=O)(=O)CC2)s1 [Compound 58, (2S)-2-({5-[(1S)-1-[(5-chloro-2-methylpyridin-3-yl)amino]ethyl]thiophen-2-yl}formamido)-3-cyclopentyl-N-(1,1-dioxo-1λ^6-thian-4-yl)propanamide] |
| 5 nM | 7 nM | COCCOc1ccc(NC(=O)[C@H](CC2CCCC2)NC(=O)c2ccc([C@H](C)Nc3cc(Cl)cnc3C)s2)cc1 [Compound 59, (2S)-2-({5-[(1S)-1-[(5-chloro-2-methylpyridin-3-yl)amino]ethyl]thiophen-2-yl}formamido)-3-cyclopentyl-N-[4-(2-methoxyethoxy)phenyl]propanamide] |
| 6 nM | 7 nM | COc1ncc(Cl)cc1N[C@@H](C)c1ccc(C(=O)N[C@@H](CC2CCCC2)C(=O)NC23CC(C2)C3)s1 [Compound 60, (2S)-N-{bicyclo[1.1.1]pentan-1-yl}-2-({5-[(1S)-1-[(5-chloro-2-methoxypyridin-3-yl)amino]ethyl]thiophen-2-yl}formamido)-3-cyclopentylpropanamide] |
| 6 nM | 10 nM | Cc1cc(NC(=O)[C@H](CC2CCCC2)NC(=O)c2ccc([C@H](C)Nc3cc(Cl)cnc3C)s2)cc(C)n1 [Compound 62, (2S)-2-({5-[(1S)-1-[(5-chloro-2-methylpyridin-3-yl)amino]ethyl]thiophen-2-yl}formamido)-3-cyclopentyl-N-(2,6-dimethylpyridin-4-yl)propanamide] |
